The subject of experiment [1] is Human Platelet Aggregation (collagen-induced). Briefly: Anti-aggregatory activity, 1 min incubation with PRP, collagen-induced (Example 8). The class given is cell-based. Particulars: 1 minute with PRP. How it is done:
(§1) Blood from healthy human volunteers who had not taken any medicine for at least 14 days was collected by venopuncture into 3.15% (w/v) tri-sodium citrate (9:1 v/v). The blood was centrifuged at 800 g for 15 minutes to produce PRP. The PRP was further centrifuged at 12,000 g for 1 minute to produce PPP. A total of 12 volunteers donated blood for the study.
(§2) Platelet aggregation was studied using a dual channel Payton aggregometer calibrated with PRP (0%) and PPP (100%) with respect to the degree of light transmission. Aliquots of PRP (500 μl) were added to siliconized cuvettes, stirred (1000 revs/min) and warmed to 37° C. The platelets were incubated for 1 minute to establish a stable baseline prior to investigation. A submaximal concentration of the aggregating agent collagen (1 μg/ml) was added to the PRP and the platelet aggregation was monitored as the increase in light transmission observed over a 4 minute period.
The percentage inhibition of the platelet aggregation was calculated using the peak increase in light transmission observed over the 4 minute period following addition of collagen, as compared to that of control. This experiment was repeated using PRP from at least three human volunteers for each compound under study.

The test system is the same in experiment [2]. The experiment is described as follows: Anti-aggregatory response after incubation with aqueous vehicle (Example 8). Type of experiment: cell-based. The note with it: up to 4 hours at 37° C. The procedure:
as §1, §2
After the incubation period, an aliquot of the PPP or aqueous vehicle (50 μl) was added to fresh PRP (450 μl) for determination of anti-platelet activity. This experiment was repeated using PPP from at least three human volunteers for each compound.

The subject of experiment [3] is U44069-induced pulmonary hypertension. Briefly: Effects on pulmonary vascular hypertension in sheep in vivo (Example 16). Particulars: FIG. 5. The source says: Each sheep was monitored for measurement of pulmonary arterial pressure (PPA), left atrial pressure (PLA), systemic arterial pressure (PSA), cardiac output (CO), and heart rate (HR). Plasma samples were taken from the sheep subjects to measure drug levels within the blood throughout the experiment. The experiment began upon intravenously infusing a known pulmonary arterial hypertension inducer in a customary manner. The rate of inducement was adjusted to cause the pulmonary vascular resistance (PVR) to increase 3 to 4 times that of the initial baseline PVR. PVR is calculated as the difference between PPA and PLA, divided by the CO. After a stabilization period, a sample of a present prostaglandin compound was administered via a surgically prepared tracheotomy using a MEDICATOR® aerosol drug delivery system (Healthline Medical Inc., Baldwin Park, Calif.), or via intravenous infusion.

Molecules are shown by their SMILES.

Results on 1 molecule are retold here after US6242482A, “Prostaglandin compounds and derivatives thereof, compositions containing the same and method of using the same for the treatment of congestive heart failure” (priority 2000, dated 2001).

`CCCCC[C@H](O)CC[C@@H]1[C@H]2Cc3cccc(OCC(=O)O)c3C[C@H]2C[C@H]1O` [Compound X]: in experiment [1], the “concentration inhibiting aggregation by 50% (IC50)” value is 0.019 ± 0.001 µg/mL and the “inhibition of platelet aggregation, concentration dependence” value was “concentration dependent inhibition of collagen-induced platelet aggregation”. Also, in experiment [1] (X 30 and 100 ng/ml, 4 300 μg/ml, 6 3 mg/ml, 7 10 mg/ml), the “inhibition of aggregation response at highest concentrations” value is recorded as “completely inhibited the aggregation response”. In experiment [2], the “effect of incubation with aqueous vehicle/saline/buffer on anti-platelet activity” value is given as “not affected by incubation”. Also, the “PPA-PLA before administration (normalized)” value in experiment [3] (1 μg/kg aerosol over 15 minutes) was “about 11.25 cmH2 O”. For the same molecule, the “PPA-PLA after administration (normalized)” value in experiment [3] (1 μg/kg aerosol, 10 minutes after termination) is recorded as “about 5 cmH2 O”.
